Data taken from US9550740B2, “Antimicrobial compounds” (Dow Global Technologies LLC, priority 2012, dated 2017).

What was measured:
Assay type in all cases: cell-based
[1] = tested on: Thermus thermophilus (ATCC 27634); experiment: Biocidal efficacy at elevated temperature; conditions: for log kill of treated bacterial populations relative to an untreated control: 50 ppm glutaraldehyde equivalent
Method: Compound 1 is dissolved in DMSO to yield a 200 mM solution such that the glutaraldehyde-equivalent concentration of the stock solution is 20,000 ppm. The bacterial strain Thermus thermophilus (ATCC 27634) is maintained at 70° C. After 24-48 hours of growth, 10 mL of bacterial culture is harvested by spinning in a Beckman-Coulter benchtop centrifuge at 3000 rpm for 15 min. The cell pellet is resuspended in 100 mL of phosphate-buffered saline (PBS) to give approximately 5×10^5 CFU/mL and aliquoted into 10 mL portions in glass test tubes fitted with screw caps. Samples are equilibrated to 37, 55, or 70° C. for 30 min and then treated with glutaraldehyde or Compound 1 at 50 ppm glutaraldehyde equivalent. The treated samples are returned to their respective equilibration temperatures for 4 h and then enumerated for surviving bacteria. After 24 h, the process is repeated by adding fresh grown bacteria to the samples to re-challenge the biocide. The samples are again enumerated after 4 h. Results are reported in terms of log kill of treated bacterial populations relative to an untreated control at each temperature. For values listed as “>x,” actual kill may have been higher but could not be detected by this assay.

[2] = tested on: pool of aerobic organisms (mixed pool of 6 bacterial species); experiment: Biocidal efficacy at room temperature, aerobic bacteria; conditions: for minimum dose needed to achieve 3-log reduction in bacteria levels: aerobic bacteria, ppm glutaraldehyde equivalent, tested 200 to 12 ppm
Method: (§1) Assay for Biocidal Efficacy at Room Temperature: Glutaraldehyde and Compounds 1 and 4 are tested for biocidal activity against a pool of aerobic organisms at room temperature and against sulfate reducing bacteria (SRB) at room temperature. Tests are performed as follows:
(§2) a. Stock preparation. Glutaraldehyde (50% in water) and Compounds 1 and 4 are each dissolved in DMSO to a concentration of 200 mM, which is equivalent to 20,000 ppm of free glutaraldehyde.
(§3) b. Aerobic Bacteria—a mixed pool of 6 bacterial species at approximately 5×10^6 CFU/mL in phosphate buffered saline is distributed into a 96-well plate. Each well receives an independent chemical treatment of the tested compounds at concentrations ranging from 200 ppm to 12 ppm glutaraldehyde. A control treatment of DMSO alone is also included. Each condition is tested in triplicate. After set periods of incubation (1, 4, and 24 h), the number of surviving cells in each well are enumerated by dilution to extinction in a medium containing resazurin dye as an indicator. c. Sulfate Reducing Bacteria (SRB)—SRB testing is performed as for the aerobic bacteria with the following modifications: the species Desulfovibrio longus is tested in anaerobic PBS and the enumeration of surviving cells is performed in a medium containing soluble iron as an indicator. d. Results: Values indicate minimum the dose needed (in ppm) to achieve 3-log reduction in bacteria levels. “n/a” indicates the threshold is not met at any of the tested doses. “N.D.” indicates no data available.

[3] = tested on: sulfate reducing bacteria (SRB), Desulfovibrio longus; experiment: Biocidal efficacy at room temperature, sulfate reducing bacteria (SRB); conditions: for minimum dose needed to achieve 3-log reduction in bacteria levels: SRB, anaerobic PBS, ppm glutaraldehyde equivalent, tested 200 to 12 ppm; for activity against SRB (in words): compared with glutaraldehyde
Method: as §1, §2, §3

[4] = 37 C., 24 hr (re-challenge with fresh bacteria, enumerated after 4 h)
[5] = 55 C., 24 hr (re-challenge with fresh bacteria, enumerated after 4 h)
[6] = 70 C., 24 hr (re-challenge with fresh bacteria, enumerated after 4 h)

Row | SMILES | log kill of treated bacterial populations relative to an untreated control ([1]; 37 C., 4 hr) | log kill of treated bacterial populations relative to an untreated control [1, 4] | log kill of treated bacterial populations relative to an untreated control ([1]; 55 C., 4 hr) | log kill of treated bacterial populations relative to an untreated control [1, 5] | log kill of treated bacterial populations relative to an untreated control ([1]; 70 C., 4 hr) | log kill of treated bacterial populations relative to an untreated control [1, 6] | activity compared with glutaraldehyde (in words) ([1]; at each temperature tested (37, 55, 70 C.)) | biocidal activity against aerobic bacteria (in words) [2] | minimum dose needed to achieve 3-log reduction in bacteria levels ([2]; 1 hour incubation) [ppm] | minimum dose needed to achieve 3-log reduction in bacteria levels ([2]; 4 hours incubation) [ppm] | minimum dose needed to achieve 3-log reduction in bacteria levels ([2]; 24 hours incubation) [ppm] | minimum dose needed to achieve 3-log reduction in bacteria levels ([3]; 1 hour incubation) [ppm] | minimum dose needed to achieve 3-log reduction in bacteria levels ([3]; 4 hours incubation) [ppm] | activity against SRB (in words) [3] | minimum dose needed to achieve 3-log reduction in bacteria levels ([3]; 24 hours incubation) [ppm]
1 | CN1CCC(c2ccccc2)OC1CCCC1OC(c2ccccc2)CCN1C (centres unmarked) [Compound 1, 1,3-bis(3-methyl-6-phenyl-1,3-oxazinan-2-yl)propane] | >3 | >4 | >3 | >3 | >4 | >4 | equivalent activity to glutaraldehyde | significant biocidal activity | 59 | 26 | 40 | 133 | 133 | some activity | –
2 | CN1CCOC1CCCC1OCCN1C (centres unmarked) [Compound 4, 1,3-bis(3-methyloxazolidin-2-yl)propane] | – | – | – | – | – | – | – | limited activity | – | 200 | 200 | 200 | 133 | some activity | –
3 | O=CCCCC=O [glut, Glutaraldehyde, reference compound] | >3 | >4 | >3 | >3 | >4 | >4 | – | – | 26 | 26 | 26 | 89 | 18 | – | <12
